# Columns and labels:
# B. subtilis RC7 = format: cell-based, Bacillus subtilis; settings: resistant clone of B. subtilis 168; ClpP Q132→STOP, premature stop
# Procedure: (§1) Determination of antibacterial activity: ADEP1 was purified from the culture supernatant of S. hawaiiensis NRRL 15010 as described.4 ADEPs 2, 4, 7, 9 were custom synthesised by EMC Microcollections, Tübingen, or provided by AiCuris, Wuppertal, Germany. The minimal inhibitory concentration (MIC) was determined by broth microdilution in Mueller‐Hinton broth (without cation adjustment) according to the guidelines of the Clinical Laboratory Standards Institute (CLSI).69 The inoculum was set to 5×10^4 CFU mL^−1 to allow some distance to the determined spontaneous resistance frequencies. […] All other ADEPs were used from DMSO stock solutions kept at −20 °C.
# (§2) Screening for ADEP‐resistant mutants and determination of resistance rates: Single colonies of wild‐type strains grown on Mueller‐Hinton agar plates overnight were suspended in sterile saline and a final inoculum of 5×10^6 cells was spread on plates supplemented with different ADEP congeners at 4× and 10× the MIC. For B. subtilis strain 3xclpP, ADEP7‐containing Mueller‐Hinton agar plates were additionally supplemented with 1 mM IPTG. Resistant colonies were counted after 24 h at 37 °C and colonies were randomly chosen for MIC determinations and sequencing. Mutations in the clpP gene of the respective isolated mutants were analysed by amplifying the clpP gene (and upstream promoter region) by PCR and sequencing of the resulting PCR amplicons (LGC genomics). Sequencing data were analysed by using SnapGene software (GSL Biotech).
# B. subtilis RC4 = format: cell-based, Bacillus subtilis; settings: resistant clone of B. subtilis 168; G insertion, frame shift, premature stop (E163→STOP)
# Procedure: as §1, §2
# B. subtilis RC9 = format: cell-based, Bacillus subtilis; settings: resistant clone of B. subtilis 168; ClpP I165→N (equatorial interface; α6)
# Procedure: as §1, §2
# B. subtilis RC10 = format: cell-based, Bacillus subtilis; settings: resistant clone of B. subtilis 168; ClpP A177→V (C-terminus; α7)
# Procedure: as §1, §2
# B. subtilis RC11 = format: cell-based, Bacillus subtilis; settings: resistant clone of B. subtilis 168; ClpP Q132→STOP, premature stop
# Procedure: as §1, §2
# B. subtilis RC8 = format: cell-based, Bacillus subtilis; settings: resistant clone of B. subtilis 168; ClpP R142→H, intra-ring interaction
# Procedure: as §1, §2
# B. subtilis RC12 = format: cell-based, Bacillus subtilis; settings: resistant clone of B. subtilis 168; ClpP A101→T (ClpP core; α4)
# Procedure: as §1, §2
# B. subtilis RC1 = format: cell-based, Bacillus subtilis; settings: resistant clone of B. subtilis 168; ClpP E156→STOP, premature stop
# Procedure: as §1, §2
# B. subtilis RC5 = format: cell-based, Bacillus subtilis; settings: resistant clone of B. subtilis 168; ClpP K85→STOP, premature stop
# Procedure: as §1, §2
# [1] = test system: B. subtilis 3xclpP clones; format: cell-based, Bacillus subtilis; settings: B. subtilis 3xclpP resistant clones
# Procedure: as §1, §2
# B. subtilis RC3 = format: cell-based, Bacillus subtilis; settings: resistant clone of B. subtilis 168; ClpP A76→T (ClpP core; α3)
# Procedure: as §1, §2
# B. subtilis RC6 = format: cell-based, Bacillus subtilis; settings: resistant clone of B. subtilis 168; ClpP N65→N; Y183→F (C-terminus; α7)
# Procedure: as §1, §2
# B. subtilis RC2 = format: cell-based, Bacillus subtilis; settings: resistant clone of B. subtilis 168; ClpP L3→STOP, premature stop
# Procedure: as §1, §2
# wild-type SaClpP = assay: Suc-LY-AMC peptide degradation by ADEP-activated ClpP; format: biochemical, Staphylococcus aureus; settings: 1 μM SaClpP, 100 μM Suc-LY-AMC, 32 °C, 15 min pre-incubation; Figure 6B
# Procedure: Peptide and protein degradation assays: Degradation assays with the fluorogenic peptide substrate Suc‐Leu‐Tyr‐7‐amino‐4‐methylcoumarin (Suc‐LY‐AMC) were performed in either BsClpP (50 mM Tris‐HCl, 25 mM MgCl2, 200 mM KCl, 2 mM DTT, pH 8) or SaClpP activity buffer (100 mM HEPES pH 7, 100 mM NaCl) in black, flat‐bottom‐96‐well plates (Sarstedt) with a total reaction volume of 100 μl and reaction temperatures of 32 °C and 37 °C for SaClpP and BsClpP, respectively. Purified ClpP proteins (final concentrations as indicated in the respective experiments) and ADEP2 (applied in 1 μl from a DMSO stock solution) were mixed and pre‐incubated for 15 min at reaction temperatures. […] Fluorophore release upon peptide hydrolysis was read out in a Tecan Infinite M200Pro plate reader (excitation/emission: 380/460 nm) every 30–60 s for 1 h. […] SaClpP (1 μM) and ADEP2 (concentrations as indicated) were pre‐incubated at 32 °C for 15 min before initiating the reaction by addition of FITC – casein (20 μM final concentration) and fluorescence readout (excitation/emission: 485/535 nm). In both assays, enzyme velocity was determined by linear regression of the initial segment of the fluorescence‐time plot in GraphPad Prism 5. […] Decrease of fluorescence was monitored at an emission wavelength of 535 nm in white, flat‐bottom 96‐well‐plates (Greiner). […]
smiles,measurement,setting,value
C[C@@H]1C[C@H]2C(=O)OC[C@H](NC(=O)[C@H](Cc3cc(F)cc(F)c3)NC(=O)CCC3CCCCC3)C(=O)N3CCC[C@H]3C(=O)N3CCCC[C@H]3C(=O)N[C@@H](C)C(=O)N2C1 [ADEP2],MIC,B. subtilis RC7,>64 µg/mL
same,MIC,B. subtilis RC4,>64 µg/mL
same,MIC,B. subtilis RC9,>64 µg/mL
same,MIC,B. subtilis RC10,>64 µg/mL
same,MIC,B. subtilis RC11,>64 µg/mL
same,MIC,B. subtilis RC8,>64 µg/mL
same,MIC,B. subtilis RC12,>64 µg/mL
same,MIC,B. subtilis RC1,>64 µg/mL
same,MIC,B. subtilis RC5,>64 µg/mL
same,"MIC, clpP mutations in the ectopic loci",[1]; mutation in lacA or aprE ectopic copy,~1 µg/mL
same,"MIC, clpP mutation in the original locus",[1]; mutation in native clpP locus,> 64 µg/mL
same,MIC,B. subtilis RC3,16 to 32 µg/mL
same,MIC,B. subtilis RC6,>64 µg/mL
same,MIC,B. subtilis RC2,>64 µg/mL
same,concentration sufficient for full catalytic stimulation (Suc-LY-AMC degradation),wild-type SaClpP,3 µM
